Experimental findings from patent US20250361271A1, “PEPTIDE AGONIST” (THE UNIVERSITY OF BIRMINGHAM, priority 2022, published 2025) are described below.

What is called half-life is the time in which the quantity being followed falls by half. A lower half-life goes with fast loss. A word on the IC50: it is the concentration needed to halve the response being measured. Read a high IC50 as a need for much substance.

Where two headings read alike, the source gives them in different places. Where a SMILES comes first, the peptide text is derived from it. [ ]: non-standard residue; d: D form. pGlu = O=C1CC[C@@H](C(=O)O)N1 Some results are limits rather than exact numbers.

Series [1] can be described thus: T1/2 in plasma (mouse). It is filed as in vitro ADME. Conditions: for half-life: mouse, plasma, 1 μM peptide, 37° C. The text has this:
Take all measurements in duplicate.

For series [2], the system named is PBLs on cytokine stimulated HDBECs.
Procedure: Blood samples were obtained from consensual healthy donors and were collected in EDTA tubes (Sigma-Aldrich). […] 5 ml of blood was layered on top of the density gradient, and was centrifuged at 2500 rpm for 45 minutes. […] The PBMCs were washed twice for 7 minutes at 1500 rpm. Peripheral blood lymphocytes (PBLs) were isolated via panning PBMCs onto a culture flask for 30 minutes at 37° C., allowing monocytes to adhere.
HDBECS defrosted at 37° C. in a 25 cm^2 cell culture flask in 10 ml of media were dissociated using EDTA (Sigma-Aldrich) and Trypsin (Gibco) and seeded on 10 wells in a 12-well tissue culture plates (Falcon) and left to adhere at 37° C. After 24 hours, confluent endothelial layers were cytokine stimulated using 100 U/ml TNF-α (Sigma-Aldrich) and 10 ng/ml IFN-γ (Peprotech) for 24 hours at 37° C. The peptide treatment of the 1×10^6 cells/ml PBLs consisted of adding the peptides immediately before use. […] 1×10^6 PBLs were added to each well and incubated at 37° C., allowing PBLs to adhere to migrate across the endothelium. […] Cells were then fixed with 2% glutaraldehyde for 10 minutes and then imaged using phase-contrast microscopy via an inverted bright-field microscope at 20× magnification.
Imaging of the PBL migration assay was carried out using ImagePro 7 software (Media Cybernetics). Surface adherent cells were categorised as being phase-bright, and transmigrated cells were categorised as phase-dark with altered morphology, appearing as being under the endothelial layer. Images were taken at 5 different fields of each well, and an average of counted adherent and migrated PBLs was calculated.
The same methods described for the in vitro transmigration assay and analysis were used, and PBL transmigration was calculated as a percentage of adherent cells. Peptides were added to the PBLs at concentrations ranging from 0.0001-500 ng/ml on the cytokine stimulated HDBECs and the resulting PBL transmigration (as a percentage of adherent cells) was plotted as a function of log10 of the peptide concentration.
The peptides were added at concentration of 20 ng/ml and run alongside untreated PBL (PBL0) and scrambled protein to analyse their effects on adhesion and transmigration.
The format of series [3] is in vitro ADME, pig. The method, then: Pig eyes were treated with either […] or one of TVS (reverse sequence of SVT comprising amino acids in D-isomeric forms), […] and QGA, derived from the […] sequence. The eyes were then incubated in a dark humified chamber. The eyes were dissected, and the vitreous humour and retina were harvested. The samples were sonicated to break up the tissue and purified using a C18 column. Once purified, the samples were digested and analysed by mass spectrometry.

The conditions of series [4]: human, plasma.
Procedure: Store at −20° C. or on ice. • 2) Thaw the plasma and spin in a centrifuge at 1500×g for 10 minutes at room temperature. • 3) Prepare stock solution of the peptide at 10 mM in dimethyl sulfoxide (DMSO) or phosphate buffered saline (PBS) and dilute solutions by adding 3 μL of 10 mM stock to 297 μL DMSO or PBS (100 µM stock for a final 1 μM concentration). • 4) Add 550 μL plasma to an incubation tube and separately add 5 μL of peptide stock solution to an incubation tube. Warm the incubation tubes (5 minutes, 37° C., with shaking). • 5) After warming, add 495 μL of warmed plasma to warmed peptide (time=0). Mix well and shake the tube containing the mixed sample (37° C., 1500×g). • 6) At 2, 5, 15, 30, 45 and 60 minutes after contacting the peptide and plasma, collect 40 μL of the sample into pre-prepared quench tubes. • 7) Analyse the sample at each time point by mass spectrometry. Take all measurements in duplicate.
The samples were analysed and the T1/2 values were calculated by XenoGesis. The T1/2 values correspond to the time taken for the concentration of the peptide in the blood or plasma to be reduced by 50%.
For series [5], the system named is primary murine calvarial osteoblasts. Nature of the series: Alkaline phosphatase activity, murine osteoblasts. It is filed as cell-based, mouse. Conditions: vs untreated cells. The method, then:
Skin was removed from around calvaria using forceps, and the calvaria was dissected out and cleaned of any contaminating tissue. Calvaria were added to αMEM media supplemented with 1 mg/ml of collagenase d (Roche, Basel, Switzerland, COLLD-RO). Tubes were then agitated at 37° C. for 10 minutes and the media discarded. αMEM media supplemented with 1 mg/ml of collagenase d was again added to calvaria and shaken at 37° C. for 30 minutes. Media (containing cells) was then removed and kept on ice. The calvaria were then again shaken at 37° C. for 10 minutes in 1.5 ml of αMEM media supplemented with 5 μM EDTA (Sigma-Aldrich, E7889) and the cell containing media transferred to the sample on ice, pooling the cells. […] Cells on ice were then spun down at 300 g for 4 minutes, resuspended in 1 ml of Basal media and counted using a haemocytometer. […] Mineralisation was assessed by quantifying the level of alkaline phosphate (ALP) activity (absorbance at 405 nm) per condition normalized to the absorbance generated by the untreated control (control on the graph). […] The plate was wrapped in foil and left to run for 45 minutes at 37° C. in an incubated shaker (SciQuip; Shropshire, UK) before being quantified using a Synergy HT plate reader (BioTek) with absorbance set at 405 nm.

The subject of series [6] is primary human osteoblasts. Nature of the series: Alkaline phosphatase activity, human osteoblasts. It is filed as cell-based. Conditions: 10 ng/ml peptide, 4 days, vs untreated cells, FIG. 5a. As for the experimental part: Human osteoarthritis subchondral joint tissue was obtained at the time of total knee and hip joint replacement operations from the Royal Orthopaedic Hospital (Birmingham). To isolate primary osteoblasts, cartilage was removed from the femoral condyles and tibial plateaus and cut into 2 mm^2 pieces. Samples were kept in media and cleaned of fat. Media contains DMEM (Sigma, D6546), FCS (10%), GPS (1%), Non-essential amino acid (1%; Sigma, M7145), β10 glycerophosphate (2 mM; Sigma, G9422) and L-Ascorbic acid (50 μg/ml; Sigma, A5960). Bone chips were placed in T75 flasks in 10 mL of media, replacing media every 2-3 days. […]
Osteoblasts (8×10^3 cells/well) were cultured in mineralisation differentiation media in the presence or absence of peptide (10 ng/ml) for 4 days. Mineralisation was assessed by quantifying the level of alkaline phosphate (ALP) activity (absorbance at 405 nm) per condition normalized to the absorbance generated by the untreated control (control on the graph).
To measure ALP activity, cells were washed in PBS before being lysed in 100 μl of RIPA buffer (Thermo Fisher, R^0278) for 15 minutes on ice. […] The plate was wrapped in foil and left to run for 45 minutes at 37° C. in an incubated shaker (SciQuip; Shropshire, UK) before being quantified using a Synergy HT plate reader (BioTek) with absorbance set at 405 nm.

Take `CC(C)[C@@H](NC(=O)[C@H](N)[C@H](C)O)C(=O)N[C@H](CO)C(N)=O` (relative stereo) [SEQ ID NO. 11, H-T*V*S*-NH2]: the “stability compared with PEPITEM” value in series [1] (in mouse plasma, human plasma, and or mouse blood) is on record as “at least as stable”. Moreover, in series [1], the half-life was greater than 3 h. In series [2], this compound displayed an IC50 of 0.024 nM. Moreover, the “eye tissue in which the peptide was found by mass spectrometry” value in series [3] is on record as “Retina only”.

Consider `C[C@H](NC(=O)CNC(=O)[C@@H]1CCC(=O)N1)C(=O)O` [SEQ ID NO. 21, pEGA] ([pGlu]-Gly-Ala-OH), for which the half-life in series [1] and in series [4] was greater than 3 h in each case. In series [2], this compound returned a half-inhibitory concentration (IC50) of 0.12 nM. In addition, the “% Inhibition (3 nM)” value in series [2] (3 nM peptide, inhibition of PBL transmigration (as a percentage of adherent cells)) worked out at 41.20%.

For the compound EGA, the “eye tissue in which the peptide was found by mass spectrometry” value in series [3] is reported as “Retina only”.

Consider “ELSNEER [SEQ ID NO. 47, reference compound]”, for which the “ALP activity (mineralisation), murine osteoblasts” value in series [5] (10 ng/ml peptide, 4 days, FIG. 5a) is “did not exhibit a statistically significant change in osteoblast activity”. Also, the “ALP activity (mineralisation), human osteoblasts” value in series [6] is recorded as “did not exhibit a statistically significant change in osteoblast activity”.

On to TSV, for which the “ALP activity (maturation mineralisation), murine osteoblasts” value in series [5] (8 days, FIG. 5b) is listed as “significantly increased”.
